Experiments:
[1] = Stability in human plasma; format: in vitro ADME; settings: T = 0, 37° C., 5 μM
Method: (§1) Prior to the testing of stability in plasma (or blood) of a peptide batch, its purity (HPLC-UV) was determined.
(§2) Rat and Human plasma: anti-coagulant sodium or lithium heparin.
(§3) 100 μM solution of study compound in 50 mM phosphate buffer pH 7.4.
(§4) 950 μL plasma (or blood) was pre-incubated for 5 min at 37° C. 50 μL of compound stock solution was added. Final compound concentration=5 μM. Vortex and transfer 150 μL plasma (or blood) into an Eppendorf for each time point. The time points […] were carried out in duplicate for each species.
(§5) After incubation, 150 μL plasma (or blood) was extracted with 600 μL Acetonitrile containing 1% TFA. Said mixture was then vortexed and centrifuged 10 min at 14600 rpm. 200 μL supernatant was dried under N2. Sample was then reconstituted in 200 μL of H2O/CH3CN 98/2+0.1% FA+50 ng/ml Labetalol and analyzed using the analytical system used in solubility and stability studies.
(§6) For determination of the amount of the remaining peptide, the peak areas of the target compound at t0 and each time point […] were compared, resulting in “% remaining peptide”, following the equation: % remaining peptide=[(peak area peptide time)×100]/peak area peptide t0. The stability was expressed as “% remaining peptide”.

[2] = Stability in rat plasma; format: in vitro ADME; settings: T = 0, 37° C., 5 μM
Method: as §1, §2, §3, §4, §5, §6

[3] = in vivo; parameters: species or system Sprague Dawley rats; settings: rat, iv, 1 mg/kg
Method: Prior to the testing of a peptide batch, its purity (HPLC-UV) was determined. Dose was corrected for presence of salts, solvent and purity. Bioanalytical screening method for quantification of peptides in rat: Sprague Dawley rats were dosed with study peptide at a dose of 1 mg/kg intravenously (i.v.) or 3 mg/kg subcutaneously (s.c.) as a solution in PBS (0.2 mg/ml and 0.6 mg/ml respectively). Blood samples were collected after: 0.083, 0.25, 0.5, 1, 2, 4, 8, 24, 48 and 72 h (i.v. route) and 0.25, 0.5, 1, 2, 4, 6, 8, 10, 24, 48 and 72 h (s.c route) post application. Plasma samples were analyzed after protein precipitation via liquid chromatography mass spectrometry (LC/MS). PK parameters and half-life were calculated using Phoenix 64 (WinNonlin 6.4)-Pharsight (Certara™) (non-compartment model). Values below the limit of quantification (BLQ) were replaced by zero for subsequent calculations and PK analysis. T½: in-vivo half-life, time required for test compound plasma concentration to be divided by two during the PK experiment. C0: Extrapolated test compound plasma concentration at t=0 time point (i.v. route). Cmax: maximal test compound plasma concentration at the indicated time point (s.c. route). Tmax: Time point where Cmax was attained. F %: s.c. vs i.v. bioavailability, dose-corrected area under curve (AUC) s.c. route divided by AUC i.v.

| Human Plasma stability % remaining [1] [%] | Rat plasma stability % remaining [2] [%] | Substance | C0 [3] [nM] | T½ (h), in-vivo half-life [3] [h] |
| --- | --- | --- | --- | --- |
| 100 | 100 | Ac-VIKLSGRELVRAQIAISGMSTWSKKKK-NH2 [KKKK(AcB7-29 C11.23S), reference compound] |  |  |
| 100 | 100 | Ac-VIKLSGRELVRAQIAISGMSTWSKRSL-NH2 [AcB7-33 C11.23S, reference compound] |  |  |
|  |  | H2-Relaxin: 6-kDa peptidic hormone of 53 amino acids; A chain (SEQ ID NO: 100) and B chain (SEQ ID NO: 101) cross-linked by disulfide bonds | 870 | 0.46 |
| 100 | 100 | H-VIKLSGRELVRAQIAISGMSTWSKRSL-NH2 [B7-33 C11.23S, reference compound] |  |  |

— patent US11725036B2, “Modified lipidated relaxin B chain peptides and their therapeutic use” (Sanofi, priority 2018, dated 2023)
